Measurements as given in patent US20240209028A1, “CNP COMPOUNDS” (priority 2022, published 2024).
In brackets after ≈: the same amount, converted by molar mass. Starred links: 1 amine or outer side, 2 acyl side, 3 side chain; linkers in the order of their positions; H or OH if unused. Positions of bridges follow the written chain, without caps; N, C: chain ends. Residues, ends and D or L forms follow the SMILES beside them. *: point of attachment. C20 diacid = O=C(O)CCCCCCCCCCCCCCCCCCC(=O)*; C18 diacid = O=C(O)CCCCCCCCCCCCCCCCC(=O)*; γGlu = O=C(O)[C@H](CCC(=O)[*:2])N[*:1]; AEEA = NCCOCCOCC(=O)O

Columns and labels:
[1] = Solubility of CNP compounds at pH 4.0 and pH 6.5; type: physicochemical; settings: 8 mM sodium phosphate, 23 mg/mL glycerol, pH 6.5, room temperature; read-out: Solubility at pH 6.5
Protocol: In order to assess the suitability of CNP compounds for a soluble liquid formulation, the solubility of CNP compounds in pharmaceutically relevant buffers were measured. Solubility at two different pH-levels (pH 4.0 and pH 6.5) was examined as pH is expected to affect solubility.
Preparation of pH 4.0 samples: The pH 4.0 samples of the CNP compounds were prepared by mixing freeze dried peptide with a pH 4.0 5 mM sodium acetate, 250 mM glycerol buffer at room temperature to a nominal concentration of at least 4000-5000 nmol/mL. The pH of the samples was measured and adjusted to pH 4.0 and the samples were allowed to equilibrate at room temperature until next day if not fully dissolved.
Preparation of pH 6.5 samples: The pH 6.5 samples of the CNP compounds were prepared by dissolving the freeze dried peptide in water. While stirring, a part of the peptide solution was transferred to a buffer consisting of 41 mM sodium phosphate and 118 mg/mL glycerol, pH 7.5-8.0, followed by addition of diluted sodium hydroxide followed by another part of the peptide solution and further addition of diluted sodium hydroxide. This procedure was repeated until all of the peptide solution had been added where a nominal concentration of at least 4000-5000 nmol/mL had been reached and the buffer composition was 8 mM sodium phosphate, 23 mg/mL glycerol. The pH of the samples were measured and adjusted to pH 6.5 and the samples were allowed to equilibrate at room temperature until next day if not fully dissolved.
Procedure: Samples at pH 4.0 were prepared as described above and the compound concentration in the supernatant was determined using CAD (Method F, CAD02).
Samples at pH 6.5 were prepared as described above and peptide concentration in the supernatant was determined by CAD (Method F, CAD02).

[2] = target: T1, human natriuretic peptide receptor 2 (hNPR2) (Homo sapiens, UniProt P20594); test: In vitro hNPR2 activity assay (cGMP GloSensor reporter, HEK293); type: cell-based; settings: potency relative to CNP22 (0065)
T1 construct: expressed in transfected cells; host or cells: HEK293 (ATCC CRL-1573), clone 35, co-transfected with pGloSensor-42F
T1 sequence (P20594 23-1047): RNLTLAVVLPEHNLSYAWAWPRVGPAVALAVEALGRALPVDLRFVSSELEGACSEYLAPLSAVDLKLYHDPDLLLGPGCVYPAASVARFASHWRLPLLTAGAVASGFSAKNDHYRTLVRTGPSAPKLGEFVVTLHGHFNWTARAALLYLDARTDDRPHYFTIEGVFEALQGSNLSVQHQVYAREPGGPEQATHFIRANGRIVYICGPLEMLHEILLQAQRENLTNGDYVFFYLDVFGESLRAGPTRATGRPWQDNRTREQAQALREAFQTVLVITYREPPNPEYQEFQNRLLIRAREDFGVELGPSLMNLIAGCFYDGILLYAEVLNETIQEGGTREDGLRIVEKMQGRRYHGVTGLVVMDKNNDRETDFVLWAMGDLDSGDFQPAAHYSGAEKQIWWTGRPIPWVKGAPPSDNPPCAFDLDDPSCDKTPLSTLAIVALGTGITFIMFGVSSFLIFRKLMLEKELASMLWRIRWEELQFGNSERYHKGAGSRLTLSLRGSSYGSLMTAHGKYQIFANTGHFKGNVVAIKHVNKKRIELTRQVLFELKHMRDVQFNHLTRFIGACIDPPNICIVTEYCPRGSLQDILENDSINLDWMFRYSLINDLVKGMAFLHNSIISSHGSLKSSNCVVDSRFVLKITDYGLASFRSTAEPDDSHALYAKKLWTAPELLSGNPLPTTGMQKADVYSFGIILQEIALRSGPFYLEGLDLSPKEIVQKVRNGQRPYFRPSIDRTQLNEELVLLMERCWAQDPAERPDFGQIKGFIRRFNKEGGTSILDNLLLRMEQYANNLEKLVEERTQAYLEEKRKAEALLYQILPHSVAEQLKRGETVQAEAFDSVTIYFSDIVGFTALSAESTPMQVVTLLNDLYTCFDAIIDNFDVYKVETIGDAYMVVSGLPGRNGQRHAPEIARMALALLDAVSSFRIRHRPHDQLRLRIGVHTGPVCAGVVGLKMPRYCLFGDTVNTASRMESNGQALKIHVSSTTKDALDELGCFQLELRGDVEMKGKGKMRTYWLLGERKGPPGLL
In short: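 Potency is the EC50 from a four-parameter logistic fit, also expressed relative to the in-plate CNP22 control (×100), with at least two replicates. Compounds (ten concentrations, […], HSA-free diluent with 1% OVA, 0.01% Tween20) were incubated 30 min at 37 °C on HEK293 cells co-expressing hNPR2 and a GloSensor cGMP luciferase. Luminescence detected with Bright-Glo.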

[3] = PK of CNP compounds after i.v. and s.c. administration to rats; settings: male, Sprague Dawley, in vivo, iv, rat, i.v., about 100 nmol/kg
Protocol: In order to assess the i.v. and s.c. PK/PD profile of CNP compounds of the present invention, formulations of CNP compounds were administered to rats, blood samples taken and exposure and cGMP response measured.
Quantitative plasma analysis of CNP-compounds: Plasma concentrations of CNP compounds were assayed by plasma protein precipitation and analysed by turboflow liquid chromatography mass spectrometry (TF-LC-MS). Calibrators were prepared by spiking either blank rat or minipig plasma with the relevant CNP compound in the range from 0.5 to 2000 nM. Calibrators, plasma blanks or study samples were prepared for TF-LC-MS by protein precipitation by adding three or four volumes of either ethanol or methanol containing 20 nM of internal standard to one volume of sample. For some compounds, formic acid was added to the precipitation reagent (the final concentration was 1% v/v). After the addition of the precipitation reagent, the mixture was centrifuged at 6200 rpm at 4° C. for 30 minutes. After centrifugation, one volume of supernatant was mixed with two volumes of water (with 1% v/v formic acid). The mixture was analysed by TF-LC-MS using a Cyclone turboflow column (0.5×50 mm, ThermoFisher Scientific) and either a XBridge Protein BEH C4 3.5 μm 300 Åor a XBridge Protein BEH C18 3.5 μm 130 Åanalytical column (both were 50×2.1 mm and obtained from Waters). […] The mass spectrometer was operated in positive ionisation mode. A TSQ Altis mass spectrometer (ThermoFisher Scientific) was used as detector in selected reaction monitoring mode (specific transition were optimised for each CNP compound). Linear calibration curves (weighed 1/×2) were used for calculating the concentration in the plasma samples. Quality control samples were included. The deviation between nominal and calculated concentration in the calibrators and quality control samples were below 15%.
Animals and dosing: Groups of 4-6 rats (male, Sprague Dawley, 350 g at arrival, Janvier, France) per compound and route of administration were dosed with a CNP compound formulated either in A) 8 mM sodium phosphate, 250 mM glycerol, 0.007% polysorbate 20, pH 7.4 or B) 5 mM sodium acetate, 250 mM glycerol, 0.007% polysorbate 20, pH 4.0 depending on the respective compound. S.c. dose was 300 nmol/kg, at a concentration of […] resulting in a dosing volume of 0.3 mL/kg, whereas i.v. dose was 100 nmol/kg, at a concentration of […] resulting in a dosing volume of 1 mL/kg.
Sampling: Sublingual blood samples of 250 uL were collected from unanaesthetised rats in EDTA-coated vials (Microvette 600K3E ref #15.1673.100 Sarstedt) at baseline (-1 h before dosing) as well as 5 min (only i.v. dosed groups), 2 h, 6 h, 24 h, 48 h and 72 h (only for exposure analysis) post-dosing. The blood samples were quickly stored on ice and centrifuged (4° C., 8000 RPM, 5 min) within 10 min of collection. Plasma samples of 50 μL were transferred to each micronic tube for either exposure or cGMP analysis, kept on dry ice and stored in a freezer (−20° C.). Rats had access to food (Altromin) and tap water ad libitum.
Analysis: PK parameters were calculated by non-compartment analysis (NCA) using software Phoenix WinNonlin (ver. 8.1 or later, Certara) for each animal. Clearance (Cl) was calculated as: Dose/AUCinf (linear up, log down). […] Bioavailability was calculated as dose normalized AUC's: (AUC(sc)/Dose(sc))/(AUC(iv)/Dose(iv)). Values in the table are means from individual animals (n=4-6 individual animals). The subsequent plots for cGMP plasma concentration versus time are (Y-axis) mean cGMP concentration (n=4-6 individual animals) after IV dosing and (X-axis) nominal plasma sampling time.
Plasma cGMP are reported as the mean.

SMILES | solubility [1] | hNPR2 0% HSA. [EC50% rel CNP] [2] | clearance ([3]; read-out: Cl (L/hr/kg), i.v. administration (converted)) | half-life ([3]; read-out: T½ (hr), i.v. administration (converted))
CC[C@H](C)[C@@H]1NC(=O)[C@H](CCCNC(=N)N)NC(=O)[C@H](CC(=O)O)NC(=O)[C@H](CC(C)C)NC(=O)[C@@H]2CCCN2C(=O)[C@H](CC(C)C)NC(=O)CNC(=O)[C@H](Cc2ccccc2)NC(=O)[C@@H](NC(=O)CNC(=O)[C@H](CO)NC(=O)[C@H](CO)NC(=O)[C@@H](NC(=O)CNC(=O)[C@@H](NC(=O)[C@H](CCCCN)NC(=O)[C@H](CCC(N)=O)NC(=O)[C@H](C)NC(=O)CNC(=O)[C@H](CCCCN)NC(=O)[C@H](Cc2ccc(O)cc2)NC(=O)[C@H](CCCCN)NC(=O)[C@H](CCCNC(=N)N)NC(=O)[C@H](C)NC(=O)COCCOCCNC(=O)COCCOCCNC(=O)CC[C@H](NC(=O)CC[C@H](NC(=O)CC[C@H](NC(=O)CCCCCCCCCCCCCCCCC(=O)O)C(=O)O)C(=O)O)C(=O)O)[C@@H](C)O)C(C)C)CSSC[C@@H](C(=O)O)NC(=O)CNC(=O)[C@H](CC(C)C)NC(=O)CNC(=O)[C@H](CO)NC(=O)[C@H](CC(C)C)NC(=O)[C@H](CO)NC(=O)CNC1=O [compound 1421] ({C18 diacid-γGlu-γGlu-γGlu-AEEA-AEEA}-ARKYKGAQKTGVSSGCFGLPLDRIGSLSGLGC-OH; disulfide 16-32) | 857 µM (≈ 3600 µg/mL) | 50.0% | – | –
CC[C@H](C)[C@@H]1NC(=O)[C@H](CCCNC(=N)N)NC(=O)[C@H](CC(=O)O)NC(=O)[C@H](CC(C)C)NC(=O)[C@@H]2CCCN2C(=O)[C@H](CC(C)C)NC(=O)CNC(=O)[C@H](Cc2ccccc2)NC(=O)[C@@H](NC(=O)CNC(=O)[C@H](CCCCN)NC(=O)[C@H](CO)NC(=O)[C@H](CC(C)C)NC(=O)CNC(=O)[C@H](CCCCN)NC(=O)[C@H](CCCCN)NC(=O)[C@H](CCC(N)=O)NC(=O)[C@H](C)NC(=O)CNC(=O)[C@H](CCC(=O)O)NC(=O)[C@H](Cc2ccc(O)cc2)NC(=O)COCCOCCNC(=O)COCCOCCNC(=O)CC[C@H](NC(=O)CCCCCCCCCCCCCCCCCCC(=O)O)C(=O)O)CSSC[C@@H](C(=O)O)NC(=O)CNC(=O)[C@H](CC(C)C)NC(=O)CNC(=O)[C@H](CO)NC(=O)[C@H](CC(C)C)NC(=O)[C@H](CO)NC(=O)CNC1=O [compound 1376] ({C20 diacid-γGlu-AEEA-AEEA}-YEGAQKKGLSKGCFGLPLDRIGSLSGLGC-OH; disulfide 13-29) | – | – | 0.00418 L/h/kg | 9.55 h
CC[C@H](C)[C@@H]1NC(=O)[C@H](CCCNC(=N)N)NC(=O)[C@H](CC(=O)O)NC(=O)[C@H](CC(C)C)NC(=O)[C@@H]2CCCN2C(=O)[C@H](CC(C)C)NC(=O)CNC(=O)[C@H](Cc2ccccc2)NC(=O)[C@@H](NC(=O)CNC(=O)[C@H](CO)NC(=O)[C@H](CO)NC(=O)[C@@H](NC(=O)CNC(=O)[C@@H](NC(=O)[C@H](Cc2c[nH]cn2)NC(=O)[C@H](CCC(N)=O)NC(=O)[C@H](C)NC(=O)CNC(=O)[C@H](Cc2c[nH]cn2)NC(=O)[C@H](Cc2ccc(O)cc2)NC(=O)[C@H](CCCCN)NC(=O)[C@H](CCCNC(=N)N)NC(=O)[C@H](C)NC(=O)COCCOCCNC(=O)COCCOCCNC(=O)CC[C@H](NC(=O)CC[C@H](NC(=O)CCCCCCCCCCCCCCCCC(=O)O)C(=O)O)C(=O)O)[C@@H](C)O)C(C)C)CSSC[C@@H](C(=O)O)NC(=O)CNC(=O)[C@H](CC(C)C)NC(=O)CNC(=O)[C@H](CO)NC(=O)[C@H](CC(C)C)NC(=O)[C@H](CO)NC(=O)CNC1=O [compound 1419] ({C18 diacid-γGlu-γGlu-AEEA-AEEA}-ARKYHGAQHTGVSSGCFGLPLDRIGSLSGLGC-OH; disulfide 16-32) | 318 µM (≈ 1300 µg/mL) | 37.2% | – | –
